# According to PMC9133015 (Nature Communications, 2022):
# Several values for one entry are separate records, joined by “and”; a condition that tells them apart may be missing. Equal entries are not always repeated. Where two headings read alike, the source gives them in different places.
# Tests used:
# Assay in all cases: Kinase inhibitor specificity profiling (Reaction Biology Corporation)
# Assay type in all cases: biochemical
# Parameters in all cases: % Enzyme Activity (relative to DMSO controls): concentration or dose not given beside the values
# [1] = target: T1, panel of 370 protein kinases (Homo sapiens, UniProt O75116); conditions: 2 h, kinase ROCK2; read-out: % Enzyme Activity (relative to DMSO controls)
# T1 construct: purchased Reaction Biology Corporation (assay service)
# [2] = target: T2, panel of 370 protein kinases (Homo sapiens, UniProt Q9Y463); conditions: 2 h, kinase DYRK1B; read-out: % Enzyme Activity (relative to DMSO controls)
# T2 construct: purchased Reaction Biology Corporation (assay service)
# [3] = target: T3, panel of 370 protein kinases (Homo sapiens, UniProt P37173); conditions: 2 h, kinase TGFBR2; read-out: % Enzyme Activity (relative to DMSO controls)
# T3 construct: purchased Reaction Biology Corporation (assay service)
# [4] = target: T4, panel of 370 protein kinases (Homo sapiens, UniProt O43318); conditions: 2 h, kinase TAK1; read-out: % Enzyme Activity (relative to DMSO controls)
# T4 construct: purchased Reaction Biology Corporation (assay service)
# [5] = target: T5, panel of 370 protein kinases (Homo sapiens, UniProt P24723); conditions: 2 h, kinase PKCeta; read-out: % Enzyme Activity (relative to DMSO controls)
# T5 construct: purchased Reaction Biology Corporation (assay service)
# [6] = target: T6, panel of 370 protein kinases (Homo sapiens, UniProt P54762); conditions: 2 h, kinase EPHB1; read-out: % Enzyme Activity (relative to DMSO controls)
# T6 construct: purchased Reaction Biology Corporation (assay service)
# [7] = target: T7, panel of 370 protein kinases (Homo sapiens, UniProt P07947); conditions: 2 h, kinase YES/YES1; read-out: % Enzyme Activity (relative to DMSO controls)
# T7 construct: purchased Reaction Biology Corporation (assay service)
# [8] = target: T8, panel of 370 protein kinases (Homo sapiens, UniProt P43403); conditions: 2 h, kinase ZAP70; read-out: % Enzyme Activity (relative to DMSO controls)
# T8 construct: purchased Reaction Biology Corporation (assay service)
# [9] = target: T9, panel of 370 protein kinases (Homo sapiens, UniProt P11362); conditions: 2 h, kinase FGFR1; read-out: % Enzyme Activity (relative to DMSO controls)
# T9 construct: purchased Reaction Biology Corporation (assay service)
# [10] = target: T10, panel of 370 protein kinases (Homo sapiens, UniProt Q9NR20); conditions: 2 h, read-out: % Enzyme Activity (relative to DMSO controls), kinase DYRK4
# T10 construct: purchased Reaction Biology Corporation (assay service)
# [11] = target: T11, panel of 370 protein kinases (Homo sapiens, UniProt Q9H0K1); conditions: 2 h, kinase SIK2; read-out: % Enzyme Activity (relative to DMSO controls)
# T11 construct: purchased Reaction Biology Corporation (assay service)
# [12] = target: T12, panel of 370 protein kinases (Homo sapiens, UniProt Q5VT25); conditions: 2 h, kinase MRCKa/CDC42BPA; read-out: % Enzyme Activity (relative to DMSO controls)
# T12 construct: purchased Reaction Biology Corporation (assay service)
# [13] = target: T13, panel of 370 protein kinases (Homo sapiens, UniProt Q04912); conditions: 2 h, kinase RON/MST1R; read-out: % Enzyme Activity (relative to DMSO controls)
# T13 construct: purchased Reaction Biology Corporation (assay service)
# [14] = target: T14, panel of 370 protein kinases (Homo sapiens, UniProt Q99683); conditions: 2 h, kinase ASK1/MAP3K5; read-out: % Enzyme Activity (relative to DMSO controls)
# T14 construct: purchased Reaction Biology Corporation (assay service)
# [15] = target: T15, panel of 370 protein kinases (Homo sapiens, UniProt P09769); conditions: 2 h, kinase FGR; read-out: % Enzyme Activity (relative to DMSO controls)
# T15 construct: purchased Reaction Biology Corporation (assay service)
# [16] = target: T16, panel of 370 protein kinases (Homo sapiens, UniProt Q00534); conditions: 2 h, read-out: % Enzyme Activity (relative to DMSO controls)
# T16 construct: purchased Reaction Biology Corporation (assay service)
# [17] = target: T17, panel of 370 protein kinases (Homo sapiens, UniProt Q9P0L2); conditions: 2 h, kinase MARK1; read-out: % Enzyme Activity (relative to DMSO controls)
# T17 construct: purchased Reaction Biology Corporation (assay service)
# [18] = target: T18, panel of 370 protein kinases (Homo sapiens, UniProt P68400); conditions: 2 h, kinase CK2a; read-out: % Enzyme Activity (relative to DMSO controls)
# T18 construct: purchased Reaction Biology Corporation (assay service)
# [19] = target: T19, panel of 370 protein kinases (Homo sapiens, UniProt Q6P2M8); conditions: kinase CAMK1b
# T19 construct: purchased Reaction Biology Corporation (assay service)
# [20] = target: T20, panel of 370 protein kinases (Homo sapiens, UniProt Q96PF2); conditions: 2 h, kinase TSSK2; read-out: % Enzyme Activity (relative to DMSO controls)
# T20 construct: purchased Reaction Biology Corporation (assay service)
# [21] = target: T21, panel of 370 protein kinases (Homo sapiens, UniProt P22455); conditions: 2 h, kinase FGFR4; read-out: % Enzyme Activity (relative to DMSO controls)
# T21 construct: purchased Reaction Biology Corporation (assay service)
# T21 sequence (P22455 22-802): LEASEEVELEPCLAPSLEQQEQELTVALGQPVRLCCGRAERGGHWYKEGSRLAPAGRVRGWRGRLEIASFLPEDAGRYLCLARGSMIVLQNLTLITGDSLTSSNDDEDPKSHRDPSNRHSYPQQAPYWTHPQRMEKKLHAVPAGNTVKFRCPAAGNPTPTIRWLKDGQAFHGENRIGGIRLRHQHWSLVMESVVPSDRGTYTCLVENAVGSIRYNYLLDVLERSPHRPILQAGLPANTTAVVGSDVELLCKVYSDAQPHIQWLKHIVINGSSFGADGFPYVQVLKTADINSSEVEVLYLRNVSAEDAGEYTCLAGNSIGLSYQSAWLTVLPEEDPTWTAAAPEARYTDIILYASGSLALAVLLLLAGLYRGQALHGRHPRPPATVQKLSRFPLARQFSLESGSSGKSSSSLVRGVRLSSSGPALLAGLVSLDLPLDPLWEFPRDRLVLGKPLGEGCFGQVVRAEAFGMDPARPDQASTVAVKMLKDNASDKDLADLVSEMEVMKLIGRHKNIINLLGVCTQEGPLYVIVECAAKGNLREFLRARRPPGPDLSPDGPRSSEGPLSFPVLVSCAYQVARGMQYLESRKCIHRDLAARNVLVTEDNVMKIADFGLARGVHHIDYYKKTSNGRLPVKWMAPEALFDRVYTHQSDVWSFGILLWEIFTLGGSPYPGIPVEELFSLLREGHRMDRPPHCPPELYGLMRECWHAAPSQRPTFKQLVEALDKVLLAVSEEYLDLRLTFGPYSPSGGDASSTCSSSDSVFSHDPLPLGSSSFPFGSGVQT
# T19 sequence (Q6P2M8 whole entry): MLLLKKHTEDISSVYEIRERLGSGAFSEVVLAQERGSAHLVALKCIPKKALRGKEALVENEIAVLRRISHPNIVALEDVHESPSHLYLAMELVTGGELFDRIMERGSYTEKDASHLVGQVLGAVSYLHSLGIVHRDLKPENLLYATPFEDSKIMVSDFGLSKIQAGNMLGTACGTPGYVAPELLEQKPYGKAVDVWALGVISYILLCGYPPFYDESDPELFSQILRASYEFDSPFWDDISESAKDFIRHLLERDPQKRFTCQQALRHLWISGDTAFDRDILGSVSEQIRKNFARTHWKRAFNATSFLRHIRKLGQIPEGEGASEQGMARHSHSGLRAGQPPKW
# T16 sequence (Q00534 whole entry): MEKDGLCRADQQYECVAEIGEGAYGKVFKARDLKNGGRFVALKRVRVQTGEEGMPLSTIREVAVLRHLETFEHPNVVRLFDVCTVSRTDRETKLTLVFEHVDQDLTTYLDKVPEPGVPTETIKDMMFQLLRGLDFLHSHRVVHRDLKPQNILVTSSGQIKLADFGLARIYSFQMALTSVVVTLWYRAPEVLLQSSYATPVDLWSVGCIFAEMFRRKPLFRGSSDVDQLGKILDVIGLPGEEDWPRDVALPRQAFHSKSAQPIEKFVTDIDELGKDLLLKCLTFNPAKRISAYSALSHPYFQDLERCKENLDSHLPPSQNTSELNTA
# T1 sequence (O75116 whole entry): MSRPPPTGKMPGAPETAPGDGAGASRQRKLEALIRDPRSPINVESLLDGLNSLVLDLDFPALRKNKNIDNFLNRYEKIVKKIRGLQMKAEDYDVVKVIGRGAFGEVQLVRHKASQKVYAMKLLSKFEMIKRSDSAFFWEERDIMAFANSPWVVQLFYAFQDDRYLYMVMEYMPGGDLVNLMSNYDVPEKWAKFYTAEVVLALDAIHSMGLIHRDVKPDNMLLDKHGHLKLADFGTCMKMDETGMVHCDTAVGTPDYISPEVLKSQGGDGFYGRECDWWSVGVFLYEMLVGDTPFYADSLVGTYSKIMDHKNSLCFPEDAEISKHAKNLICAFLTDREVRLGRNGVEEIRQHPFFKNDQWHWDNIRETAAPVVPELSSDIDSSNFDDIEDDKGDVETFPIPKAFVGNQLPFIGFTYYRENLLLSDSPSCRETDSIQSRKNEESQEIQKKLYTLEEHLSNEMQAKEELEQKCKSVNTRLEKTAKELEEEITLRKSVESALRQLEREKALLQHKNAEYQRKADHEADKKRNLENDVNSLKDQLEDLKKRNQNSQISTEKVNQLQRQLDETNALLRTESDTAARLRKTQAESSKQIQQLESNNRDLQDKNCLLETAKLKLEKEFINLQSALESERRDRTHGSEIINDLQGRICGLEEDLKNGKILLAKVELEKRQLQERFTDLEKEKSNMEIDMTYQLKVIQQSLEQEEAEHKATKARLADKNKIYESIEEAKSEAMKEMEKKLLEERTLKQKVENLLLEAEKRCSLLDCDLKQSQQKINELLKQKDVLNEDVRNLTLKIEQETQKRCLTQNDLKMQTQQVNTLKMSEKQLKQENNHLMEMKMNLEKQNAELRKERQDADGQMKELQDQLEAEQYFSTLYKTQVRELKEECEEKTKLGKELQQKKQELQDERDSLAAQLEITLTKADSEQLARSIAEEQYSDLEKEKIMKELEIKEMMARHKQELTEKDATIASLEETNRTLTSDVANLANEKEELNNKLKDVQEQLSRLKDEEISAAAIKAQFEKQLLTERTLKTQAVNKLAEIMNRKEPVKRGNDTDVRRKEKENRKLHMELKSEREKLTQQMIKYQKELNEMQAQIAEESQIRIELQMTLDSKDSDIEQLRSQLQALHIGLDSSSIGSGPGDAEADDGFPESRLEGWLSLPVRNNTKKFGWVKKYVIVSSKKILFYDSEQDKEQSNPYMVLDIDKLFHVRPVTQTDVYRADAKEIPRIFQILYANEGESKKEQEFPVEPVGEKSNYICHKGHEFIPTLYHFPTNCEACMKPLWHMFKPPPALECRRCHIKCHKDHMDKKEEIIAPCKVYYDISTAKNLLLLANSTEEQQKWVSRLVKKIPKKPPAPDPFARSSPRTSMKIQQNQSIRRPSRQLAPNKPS
# T20 sequence (Q96PF2 whole entry): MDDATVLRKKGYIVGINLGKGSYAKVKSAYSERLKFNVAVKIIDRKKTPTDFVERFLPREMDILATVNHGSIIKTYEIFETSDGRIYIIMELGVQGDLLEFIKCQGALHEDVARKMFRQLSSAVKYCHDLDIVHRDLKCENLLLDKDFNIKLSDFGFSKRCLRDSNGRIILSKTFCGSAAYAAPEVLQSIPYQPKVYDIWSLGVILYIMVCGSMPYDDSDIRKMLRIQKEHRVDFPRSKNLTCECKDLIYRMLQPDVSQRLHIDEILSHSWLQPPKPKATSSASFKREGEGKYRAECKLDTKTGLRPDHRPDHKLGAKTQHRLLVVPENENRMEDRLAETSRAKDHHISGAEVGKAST
# T17 sequence (Q9P0L2 whole entry): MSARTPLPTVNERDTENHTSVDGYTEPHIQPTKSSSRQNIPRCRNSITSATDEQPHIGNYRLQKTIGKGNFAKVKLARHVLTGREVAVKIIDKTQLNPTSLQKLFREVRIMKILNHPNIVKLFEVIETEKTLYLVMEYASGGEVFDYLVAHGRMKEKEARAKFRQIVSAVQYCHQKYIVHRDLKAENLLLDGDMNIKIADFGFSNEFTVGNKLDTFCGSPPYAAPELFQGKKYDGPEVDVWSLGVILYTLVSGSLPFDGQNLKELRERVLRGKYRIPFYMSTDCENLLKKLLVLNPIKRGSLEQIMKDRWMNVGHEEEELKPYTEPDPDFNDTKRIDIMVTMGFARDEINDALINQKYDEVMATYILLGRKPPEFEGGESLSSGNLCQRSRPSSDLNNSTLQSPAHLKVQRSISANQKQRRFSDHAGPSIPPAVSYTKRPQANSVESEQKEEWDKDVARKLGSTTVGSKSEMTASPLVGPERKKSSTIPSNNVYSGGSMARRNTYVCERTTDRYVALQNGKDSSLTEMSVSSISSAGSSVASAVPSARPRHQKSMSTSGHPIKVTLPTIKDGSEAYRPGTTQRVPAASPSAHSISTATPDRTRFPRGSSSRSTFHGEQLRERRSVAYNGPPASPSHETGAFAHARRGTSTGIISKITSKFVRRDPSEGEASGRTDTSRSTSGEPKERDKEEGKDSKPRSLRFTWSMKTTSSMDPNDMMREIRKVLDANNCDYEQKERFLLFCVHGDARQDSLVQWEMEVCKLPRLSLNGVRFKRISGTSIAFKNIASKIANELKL
# T15 sequence (P09769 whole entry): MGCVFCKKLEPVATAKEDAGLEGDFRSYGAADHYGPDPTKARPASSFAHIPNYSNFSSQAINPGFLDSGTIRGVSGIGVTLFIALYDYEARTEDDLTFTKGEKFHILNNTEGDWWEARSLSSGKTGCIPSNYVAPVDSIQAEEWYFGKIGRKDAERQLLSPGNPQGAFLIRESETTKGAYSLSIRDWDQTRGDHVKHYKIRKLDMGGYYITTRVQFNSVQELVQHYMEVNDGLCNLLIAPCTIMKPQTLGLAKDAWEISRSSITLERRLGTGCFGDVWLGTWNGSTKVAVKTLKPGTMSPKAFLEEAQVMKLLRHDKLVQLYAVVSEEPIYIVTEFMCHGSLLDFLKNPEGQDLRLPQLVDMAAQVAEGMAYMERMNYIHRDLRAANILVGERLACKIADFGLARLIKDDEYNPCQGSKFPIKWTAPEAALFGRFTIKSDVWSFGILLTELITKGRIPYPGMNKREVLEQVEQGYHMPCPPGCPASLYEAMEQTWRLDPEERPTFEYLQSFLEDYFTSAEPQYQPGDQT
# T10 sequence (Q9NR20 whole entry): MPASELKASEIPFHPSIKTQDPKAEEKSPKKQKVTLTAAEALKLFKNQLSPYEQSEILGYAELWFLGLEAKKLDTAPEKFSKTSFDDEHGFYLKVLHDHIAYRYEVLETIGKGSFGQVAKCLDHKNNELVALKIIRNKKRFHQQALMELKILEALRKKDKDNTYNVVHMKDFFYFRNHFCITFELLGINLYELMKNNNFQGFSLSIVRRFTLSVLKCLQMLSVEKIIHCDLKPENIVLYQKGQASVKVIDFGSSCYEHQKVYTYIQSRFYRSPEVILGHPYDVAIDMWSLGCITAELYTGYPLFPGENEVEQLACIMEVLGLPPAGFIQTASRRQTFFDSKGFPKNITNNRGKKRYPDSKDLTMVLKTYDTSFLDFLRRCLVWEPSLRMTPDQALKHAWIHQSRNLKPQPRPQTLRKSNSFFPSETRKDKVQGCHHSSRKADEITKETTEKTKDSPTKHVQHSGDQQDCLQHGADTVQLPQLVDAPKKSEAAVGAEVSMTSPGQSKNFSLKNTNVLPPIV
smiles,measurement,setting,value
CCN1CCN(C(=O)c2ccc(Nc3ncc(F)c(-c4ccc5nc(N(C)C)sc5c4)n3)nc2)CC1 [YK-2-69],remaining activity at 1 µM,[1],93.2%
same,remaining activity at 1 µM,[2],40.7%
same,remaining activity at 1 µM,[3],104%
same,remaining activity at 1 µM,[4],103%
same,remaining activity at 1 µM,[5],77%
same,remaining activity at 1 µM,[6],94%
same,remaining activity at 1 µM,[7],108%
same,remaining activity at 1 µM,[8],87.8%
same,remaining activity at 1 µM,[9],76.5%
same,remaining activity at 1 µM,[10],50%
same,remaining activity at 1 µM,[11],95.6%
same,remaining activity at 1 µM,[12],111%
same,remaining activity at 1 µM,[13],89.5%
same,remaining activity at 1 µM,[14],106%
same,remaining activity at 1 µM,[15],106%
same,remaining activity at 1 µM,[16]; kinase CDK6/cyclin D1,8.21%
same,remaining activity at 1 µM,[16]; kinase CDK6/cyclin D3,71.9%
same,remaining activity at 1 µM,[17],88%
same,remaining activity at 1 µM,[18],52.3%
same,% Enzyme Activity (relative to DMSO controls),[19],94.21% and 93.36%
same,remaining activity at 1 µM,[20],96.7%
same,remaining activity at 1 µM,[21],88.9%
